Results reported in ChEMBL document CHEMBL2021864, “Investigating the activity of quinine analogues versus chloroquine resistant Plasmodium falciparum” (Bioorg Med Chem, 2012).

What was measured:
Plasmodium falciparum [1] = assay: microbe, parasite or virus in culture; type: functional, organism-based; details: HB3, 72 h
Description: Antimalarial activity against chloroquine sensitive Plasmodium falciparum HB3 after 72 hrs by SYBP Green I dye staining

Plasmodium falciparum [2] = assay: microbe, parasite or virus in culture; type: functional, organism-based; details: Dd2, 72 h
Description: Antimalarial activity against chloroquine resistant Plasmodium falciparum Dd2 after 72 hrs by SYBP Green I dye staining

[3] = Inhibition of beta-hematin formation after 16 hrs at pH 5.6 by microplate reader; type: functional
[4] = Inhibition of beta-hematin formation after 16 hrs at pH 5.2 by microplate reader; type: functional
Plasmodium falciparum [5] = assay: Ratio of compound IC50 to quinidine IC50 for chloroquine sensitive Plasmodium falciparum HB3; type: functional
Plasmodium falciparum [6] = assay: Ratio of compound IC50 to quinidine IC50 for […] Plasmodium falciparum Dd2; type: functional
Plasmodium falciparum [7] = assay: Ratio of compound IC50 to cinchonine IC50 for chloroquine sensitive Plasmodium falciparum HB3; type: functional

Row | SMILES | IC50 (Plasmodium falciparum [1]) [nM] | IC50 (Plasmodium falciparum [2]) [nM] | IC50 [3] [nM] | IC50 [4] [nM] | Ratio IC50 (Plasmodium falciparum [5]) | Ratio IC50 (Plasmodium falciparum [6]) | Ratio IC50 (Plasmodium falciparum [7])
1 | COc1ccc2nccc([C@@H](O)[C@H]3C[C@H]4CCN3C[C@@H]4/C=C/c3ccccc3)c2c1 | > 500 | > 500 | – | – | – | – | –
2 | COc1ccc2nccc([C@@H](O)[C@H]3C[C@H]4CCN3C[C@@H]4/C=C/c3ccc(C)cc3)c2c1 | > 500 | > 500 | – | – | – | – | –
3 | COc1ccc2nccc([C@@H](O)[C@H]3C[C@H]4CCN3C[C@@H]4/C=C/c3ccccc3C)c2c1 | > 500 | > 500 | – | – | – | – | –
4 | COc1ccc2nccc([C@@H](O)[C@H]3C[C@H]4CCN3C[C@@H]4/C=C/c3ccc4ccccc4c3)c2c1 | > 500 | > 1500 | – | – | – | – | –
5 | COc1ccc2nccc([C@@H](O)[C@H]3C[C@H]4CCN3C[C@@H]4/C=C/c3cccc4ccccc34)c2c1 | > 500 | > 500 | – | – | – | – | –
6 | COc1ccc2nccc([C@@H](O)[C@H]3C[C@H]4CCN3C[C@@H]4/C=C/c3ccc(-c4ccccc4)cc3)c2c1 | 128 | 184 | – | – | – | – | –
7 | CCOC(=O)c1ccc(/C=C/[C@H]2CN3CC[C@@H]2C[C@@H]3[C@H](O)c2ccnc3ccc(OC)cc23)cc1 | 428 | 318 | 40000 | 54000 | – | – | –
8 | COc1ccc2nccc([C@@H](O)[C@H]3C[C@H]4CCN3C[C@@H]4/C=C/c3ccc(F)cc3)c2c1 | > 500 | > 500 | 23000 | 44000 | – | – | –
9 | COc1ccc2nccc([C@@H](O)[C@H]3C[C@H]4CCN3C[C@@H]4/C=C/c3cccc(F)c3)c2c1 | 145 | 733 | – | – | – | – | –
10 | COc1ccc2nccc([C@@H](O)[C@H]3C[C@H]4CCN3C[C@@H]4/C=C/c3ccc(Cl)cc3)c2c1 | > 500 | > 500 | – | – | – | – | –
11 | COc1ccc2nccc([C@@H](O)[C@H]3C[C@H]4CCN3C[C@@H]4/C=C/c3ccc(C(F)(F)F)cc3)c2c1 | 427 | 485 | 46000 | 100000 | – | – | –
12 | COc1ccc2nccc([C@@H](O)[C@H]3C[C@H]4CCN3C[C@@H]4/C=C/c3cccc(C(F)(F)F)c3)c2c1 | > 500 | > 500 | – | 52000 | – | – | –
13 | COc1ccc(/C=C/[C@H]2CN3CC[C@@H]2C[C@@H]3[C@H](O)c2ccnc3ccc(OC)cc23)cc1 | > 500 | > 500 | – | – | – | – | –
14 | COc1cccc(/C=C/[C@H]2CN3CC[C@@H]2C[C@@H]3[C@H](O)c2ccnc3ccc(OC)cc23)c1 | > 500 | > 500 | – | – | – | – | –
15 | COc1ccc2nccc([C@@H](O)[C@H]3C[C@H]4CCN3C[C@@H]4/C=C/c3ccc4c(c3)OCO4)c2c1 | > 500 | > 500 | – | – | – | – | –
16 | O[C@H](c1ccnc2ccccc12)[C@@H]1C[C@@H]2CCN1C[C@@H]2/C=C/c1ccc(-c2ccccc2)cc1 | 127 | 176 | 116000 | – | – | – | –

Row | SMILES | IC50 (Plasmodium falciparum [1]) [nM] | IC50 (Plasmodium falciparum [2]) [nM] | IC50 [3] [nM] | IC50 [4] [nM] | Ratio IC50 (Plasmodium falciparum [5]) | Ratio IC50 (Plasmodium falciparum [6]) | Ratio IC50 (Plasmodium falciparum [7])
17 | CCOC(=O)c1ccc(/C=C/[C@H]2CN3CC[C@H]2C[C@H]3[C@H](O)c2ccnc3ccccc23)cc1 | 590 | 198 | – | – | – | – | –
18 | O[C@H](c1ccnc2ccccc12)[C@@H]1C[C@@H]2CCN1C[C@@H]2/C=C/c1ccc(C(F)(F)F)cc1 | 297 | 223 | – | – | – | – | –
19 | O[C@H](c1ccnc2ccccc12)[C@@H]1C[C@@H]2CCN1C[C@@H]2/C=C/c1cccc(C(F)(F)F)c1 | 394 | 928 | 70000 | 75000 | – | – | –
20 | COc1ccc2nccc([C@H](O)[C@H]3C[C@@H]4CCN3C[C@@H]4/C=C/c3ccc(-c4ccccc4)cc3)c2c1 | 123 | 202 | – | – | 6 | 2 | –
21 | CCOC(=O)c1ccc(/C=C/[C@H]2CN3CC[C@H]2C[C@@H]3[C@@H](O)c2ccnc3ccc(OC)cc23)cc1 | 120 | 203 | 40000 | 88000 | 6 | 2 | –
22 | COc1ccc2nccc([C@H](O)[C@H]3C[C@@H]4CCN3C[C@@H]4/C=C/c3ccc(C(F)(F)F)cc3)c2c1 | 165 | 2350 | – | – | – | – | –
23 | COc1ccc2nccc([C@H](O)[C@H]3C[C@@H]4CCN3C[C@@H]4/C=C/c3cccc(C(F)(F)F)c3)c2c1 | 98 | 182 | – | – | 6 | 2 | –
24 | O[C@@H](c1ccnc2ccccc12)[C@H]1C[C@@H]2CCN1C[C@@H]2/C=C/c1ccc(-c2ccccc2)cc1 | 90 | 243 | – | – | – | – | 6
25 | CCOC(=O)c1ccc(/C=C/[C@H]2CN3CC[C@H]2C[C@@H]3[C@@H](O)c2ccnc3ccccc23)cc1 | 144 | 263 | 50000 | 66000 | – | – | 6
26 | O[C@@H](c1ccnc2ccccc12)[C@H]1C[C@@H]2CCN1C[C@@H]2/C=C/c1ccc(C(F)(F)F)cc1 | 66 | 983 | – | – | – | – | 6
27 | O[C@@H](c1ccnc2ccccc12)[C@H]1C[C@@H]2CCN1C[C@@H]2/C=C/c1cccc(C(F)(F)F)c1 | 154 | 146 | 39000 | 63000 | – | – | 6
28 | CCN(CC)CCCC(C)Nc1ccnc2cc(Cl)ccc12 (stereo not drawn) [CHLOROQUINE] | – | – | 33000 | 49000 | – | – | –
29 | C=C[C@H]1CN2CC[C@H]1C[C@H]2[C@H](O)c1ccnc2ccccc12 [CINCHONIDINE] | 70 | 207 | 142000 | 321000 | – | – | –
30 | C=C[C@H]1CN2CC[C@H]1C[C@@H]2[C@@H](O)c1ccnc2ccccc12 [CINCHONINE] | 22 | 82 | 170000 | 370000 | – | – | –
31 | C=C[C@H]1CN2CC[C@H]1C[C@@H]2[C@@H](O)c1ccnc2ccc(OC)cc12 [QUINIDINE] | 18 | 90 | 23000 | 130000 | – | – | –
32 | C=C[C@H]1CN2CC[C@H]1C[C@H]2[C@H](O)c1ccnc2ccc(OC)cc12 [QUININE] | 81 | 320 | 34000 | 291000 | – | – | –
